From ChEMBL document CHEMBL1135155, “Optimization of the beta-aminoester class of factor Xa inhibitors. Part 2: Identification of FXV673 as a potent and selective inhibitor with excellent In vivo anticoagulant activity” (Bioorg Med Chem Lett, 2002)

What was measured:
[1] = Selectivity ratio as Ki of Serine proteases tissue plasminogen activator / Ki of factor Xa
Homo sapiens = species: Homo sapiens; assay: Concentration at which compound inhibited coagulation of human plasma in vitro, doubling activated partial thromboplastin time (APTT); type: functional, cell-free
[2] = target: Thrombin and coagulation factor X (Homo sapiens) (UniProt P00734+P00742); assay: Selectivity ratio as Ki of factor IIA / Ki of factor Xa; type: protein assay
Prothrombin = Prothrombin (Homo sapiens, UniProt P00734); assay: Inhibition of Coagulation factor IIa
[3] = Selectivity ratio as Ki of Activated protein C / Ki of factor Xa
Rattus norvegicus [4] = species: Rattus norvegicus; assay: Concentration at which compound inhibited coagulation of rat plasma in vitro, doubling activated partial thromboplastin time (APTT); type: functional, cell-free
[5] = Selectivity ratio as Ki of Trypsin / Ki of factor Xa
Serine protease 1 = Serine protease 1 (Homo sapiens, UniProt P07477); assay: In vitro inhibitory potency against Trypsin
Coagulation factor X = Coagulation factor X (Homo sapiens, UniProt P00742); assay: Inhibition of Coagulation factor Xa
Rattus norvegicus [6] = assay: Tested for maximal effective dose in ferrous-chloride induced arterial thrombosis by intravenous maintenance infusion; type: functional
Rattus norvegicus [7] = species: Rattus norvegicus; assay: Tested for maximal effective dose in ferrous-chloride induced arterial thrombosis by bolus infusion; type: functional; conditions: read-out: MED

Chain of Serine protease 1 (P07477 whole entry): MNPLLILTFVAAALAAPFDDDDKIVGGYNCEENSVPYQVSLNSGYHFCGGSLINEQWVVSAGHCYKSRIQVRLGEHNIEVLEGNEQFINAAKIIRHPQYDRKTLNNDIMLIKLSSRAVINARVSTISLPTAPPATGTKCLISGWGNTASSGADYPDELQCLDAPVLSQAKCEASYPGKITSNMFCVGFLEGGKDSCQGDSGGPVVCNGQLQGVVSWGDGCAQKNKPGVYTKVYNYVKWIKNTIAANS
Chain of Coagulation factor X (P00742 41-179 limits assumed): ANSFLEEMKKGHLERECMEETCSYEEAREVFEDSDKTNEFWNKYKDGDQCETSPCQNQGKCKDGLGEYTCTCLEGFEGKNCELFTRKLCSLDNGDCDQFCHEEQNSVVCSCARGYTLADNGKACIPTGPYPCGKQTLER
Chain of Coagulation factor X (P00742 235-488 limits assumed): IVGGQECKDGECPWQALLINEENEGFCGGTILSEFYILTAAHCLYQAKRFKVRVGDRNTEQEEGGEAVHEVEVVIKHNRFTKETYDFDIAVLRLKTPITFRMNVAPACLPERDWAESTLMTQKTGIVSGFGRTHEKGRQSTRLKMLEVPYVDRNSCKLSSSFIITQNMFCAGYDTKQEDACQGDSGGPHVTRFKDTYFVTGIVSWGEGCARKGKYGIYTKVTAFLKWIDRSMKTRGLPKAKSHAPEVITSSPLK
Chain of Thrombin and coagulation factor X (Homo sapiens) (P00742 whole entry, looked up, other chains not shown): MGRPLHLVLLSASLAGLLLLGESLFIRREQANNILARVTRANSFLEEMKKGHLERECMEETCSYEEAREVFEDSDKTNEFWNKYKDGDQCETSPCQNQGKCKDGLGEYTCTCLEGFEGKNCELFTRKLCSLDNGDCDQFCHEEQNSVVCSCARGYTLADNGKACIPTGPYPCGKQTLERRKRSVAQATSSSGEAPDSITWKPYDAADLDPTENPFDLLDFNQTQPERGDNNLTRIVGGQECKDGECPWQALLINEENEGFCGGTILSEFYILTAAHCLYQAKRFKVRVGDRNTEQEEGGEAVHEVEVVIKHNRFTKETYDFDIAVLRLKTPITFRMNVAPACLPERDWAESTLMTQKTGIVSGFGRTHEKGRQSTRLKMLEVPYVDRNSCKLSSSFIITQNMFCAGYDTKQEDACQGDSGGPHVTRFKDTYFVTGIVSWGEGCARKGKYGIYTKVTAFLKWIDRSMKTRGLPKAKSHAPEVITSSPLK

Structure (SMILES)	Ki (Prothrombin)	Ki (Serine protease 1)	Ki (Coagulation factor X)	also measured
COC(=O)[C@H](Cc1cccc(C(=N)N)c1)[C@@H](C)NC(=O)c1ccc(-c2ccccc2)cc1	3.25 µM	–	–	Ratio [1]: > 1000; Concentration (Homo sapiens): 3.9 µM; Ratio [2]: 610; Ratio [3]: > 1000; Concentration (Rattus norvegicus [4]): 5.1 µM; Ratio [5]: 13
COC(=O)[C@H](Cc1cccc(C(=N)N)c1)[C@@H](C)NC(=O)c1ccc(-c2ccc[n+](C)c2)cc1	> 4 µM	52 nM	0.8 nM	–
COC(=O)[C@H](Cc1cccc(C(=N)N)c1)[C@@H](C)NC(=O)c1ccc(-n2ccnc2)cc1	> 4 µM	> 2900 nM	6 nM	–
COC(=O)[C@H](Cc1cccc(C(=N)N)c1)[C@@H](C)NC(=O)c1ccc(-c2ncc[nH]2)cc1	> 4 µM	490 nM	46 nM	–
COC(=O)[C@H](Cc1cccc(C(=N)N)c1)[C@@H](C)NC(=O)c1ccc(-c2c[nH]cn2)cc1	> 4 µM	170 nM	3 nM	–
COC(=O)[C@H](Cc1cccc(C(=N)N)c1)[C@@H](C)NC(=O)c1ccc(-c2cccc[n+]2C)cc1	> 4 µM	36 nM	1.2 nM	–
COC(=O)[C@H](Cc1cccc(C(=N)N)c1)[C@@H](C)NC(=O)c1ccc(-c2ccc[n+]([O-])c2)cc1	> 4 µM	130 nM	2 nM	–
COC(=O)[C@H](Cc1cccc(C(=N)N)c1)[C@@H](C)NC(=O)c1ccc(-c2cc[n+]([O-])cc2)cc1 [OTAMIXABAN]	> 4 µM	301 nM	–	Ratio [1]: > 10000; Concentration (Homo sapiens): 0.41 µM; MED (Rattus norvegicus [6]): 5 µg/min/kg; minimal effective dose (Rattus norvegicus [7]): 0.05 mg/kg; Ratio [2]: > 10000; Ratio [3]: > 10000; Concentration (Rattus norvegicus [4]): 0.8 µM; Ratio [5]: 750
COC(=O)[C@H](Cc1cccc(C(=N)N)c1)[C@@H](C)NC(=O)c1ccc(-c2ccncc2)cc1	> 4 µM	76 nM	0.5 nM	–
COC(=O)[C@H](Cc1cccc(C(=N)N)c1)[C@@H](C)NC(=O)c1ccc(-c2ccccn2)cc1	2.8 µM	51 nM	0.89 nM	–
COC(=O)[C@H](Cc1cccc(C(=N)N)c1)[C@@H](C)NC(=O)c1ccc(-c2cccc[n+]2[O-])cc1	> 4 µM	36 nM	0.58 nM	–
COC(=O)[C@H](Cc1cccc(C(=N)N)c1)[C@@H](C)NC(=O)c1ccc(-c2cc[n+](C)cc2)cc1	> 4 µM	168 nM	2.7 nM	–
COC(=O)[C@H](Cc1cccc(C(=N)N)c1)[C@@H](C)NC(=O)c1ccc(-c2cccnc2)cc1	4 µM	368 nM	8 nM	–
